From article PMC11301271 (FEBS Open Bio, 2024)
pIC50, pKd, pKi: −log10 of the molar value. Where “and” joins values, the source holds several entries; their conditions need not be identical. Equal entries are not always repeated. Where two headings read alike, the source gives them in different places. Values belong to the compound of their own block, whether it stands above or below them.

Tests used:
human MK [1] = molecular target: T1, human MK (Homo sapiens, UniProt Q03426); experiment: Steady-state kinetics of human MK (Michaelis-Menten, substrates); assay type: biochemical; details: one substrate varied, the other fixed at 5 mM; 32 °C; read-out: Km of recombinant MK for the substrate
T1 construct: His6 (N); made in house; host or cells: E. coli BL21(DE3)

human MK [2] = molecular target: T1, human MK; experiment: MK coupled enzyme assay (pyruvate kinase/lactate dehydrogenase): inhibitor screening and IC50; assay type: biochemical; details: for pIC50: read-out: IC50 for MK inhibition; for MK inhibition, result in words: screening, 10 μM compound
Method: A pET‐15b plasmid encoding human MK (UniProt Q03426) with an N‐terminal His6‐tag was transformed into E. coli BL21(DE3) cells (New England Biolabs, Whitby, ON, Canada). The cells were cultured in LB at 37 °C until the OD600 of the culture reached 0.6. Expression of the recombinant enzyme was induced by 0.1 mM IPTG for 6 h at 37 °C. The cells were lysed by sonication, and the lysate was subjected to Ni‐affinity chromatography (HisTrap HP, Cytiva, Vancouver, BC, Canada) followed by size exclusion chromatography (HiLoad Superdex 200 PG, Cytiva) (Fig. 2A). […] The purified enzyme was flash‐frozen in liquid nitrogen and stored at −80 °C. The final sample buffer (i.e., the size exclusion buffer) consisted of 10 mM HEPES (pH 7.5), 500 mM NaCl, 2 mM β‐mercaptoethanol, and 5% glycerol.
(§1) MK activity was measured by using a coupled enzyme assay as previously described. The reporter enzymes, pyruvate kinase and lactate dehydrogenase, were purchased as a pre‐mixed buffered solution from MilliporeSigma. […] All reactions were carried out at 32 °C in triplicate unless otherwise noted. Each reaction was initiated by adding 10 μL of MK (50 μg mL^−1; diluted from the −80 °C stock in 50 mM HEPES, pH 7.5) to 990 μL of the reaction buffer containing all the other components except MK (pre‐incubated at 32 °C for 5 min) and immediately transferring to a 1 mL disposable polystyrene cuvette (Fisherbrand) pre‐placed in the temperature‐controlled cell holder of an Agilent 8453 UV–visible Spectroscopy System. Blank reactions were added with 10 μL of 50 mM HEPES (pH 7.5) only. Reaction progress was continuously monitored by measuring the A340 for 1 min. To convert the measured absorbance to product concentration, an absorption coefficient of NADH determined from a calibration curve (5.4107 cm^−1 mM ^−1) was used. Initial rate experiments were conducted by varying the concentration of one substrate while keeping the other at a saturating concentration of 5 mM. Kinetic parameters were determined by fitting the rate data to the Michaelis–Menten model (Eqn 1), vi=VmaxS/Km+S, where [S] represents the concentration of the varied substrate. Data analysis was performed with […] PRISM software (GraphPad Software, Boston, MA, USA).
To prepare master stock solutions, the phosphonate compounds were dissolved in Milli‐Q water to a concentration of 20 mM, either as monosodium salts (monophosphonate compounds) or as trisodium salts (bisphosphonate compounds). Their effects on MK activity were evaluated by using the coupled enzyme assay described above. Each compound was tested at two concentrations: 1 and 10 μM.
To determine the IC 50, a more refined inhibition response across a broader range of inhibitor concentrations was measured. Typically, nine different inhibitor concentrations spanning a 10 000‐fold concentration range were used. Dose–response curves were generated by fitting the inhibition data to the following three‐parameter dose–response equation (Eqn 2), where Max and Min denote the maximum and minimum response, respectively: Response=Min+Max−Min/1+I/IC50.

human MK [3] = molecular target: T1, human MK; experiment: Mode of inhibition and Ki determination, initial rate experiments with MK; assay type: biochemical; details: for Ki' (ATP-bound enzyme), mixed inhibition model with respect to ATP: ATP varied 0.05-1 mM, MVA 5 mM; for Ki', uncompetitive inhibition model with respect to MVA: MVA varied 0.01-0.2 mM, ATP 5 mM
Method: as §1
In all experiments, one substrate was added at a constant concentration of 5 mM. […] Each inhibitor was tested at four different concentrations ranging from 0 to 200 nM. Data analysis was performed with […] PRISM software. The initial rates were fitted to steady‐state equations describing competitive inhibition model (Eqn 3), vi=VmaxS/Km1+I/Ki+S, noncompetitive inhibition model (Eqn 4), vi=VmaxS/1+I/Ki/Km+S, uncompetitive inhibition model (Eqn 5), vi=VmaxS/1+I/Ki^′/Km/1+I/Ki^′+S, and mixed inhibition model (Eqn 6), vi=VmaxS/1+I/Ki^′/Km1+I/Ki/1+I/Ki^′+S, where [S] represents the concentration of the varied substrate. The selection of the most appropriate models was determined through the extra sum‐of‐squares F test as implemented in the software.

FPPS [4] = molecular target: T2, FPPS (Homo sapiens, UniProt P14324); experiment: Inhibition of FPPS; assay type: biochemical; details: read-out: inhibition of FPPS at 10 μM; 10 μM compound; unpublished data
T2 sequence (P14324 1-419): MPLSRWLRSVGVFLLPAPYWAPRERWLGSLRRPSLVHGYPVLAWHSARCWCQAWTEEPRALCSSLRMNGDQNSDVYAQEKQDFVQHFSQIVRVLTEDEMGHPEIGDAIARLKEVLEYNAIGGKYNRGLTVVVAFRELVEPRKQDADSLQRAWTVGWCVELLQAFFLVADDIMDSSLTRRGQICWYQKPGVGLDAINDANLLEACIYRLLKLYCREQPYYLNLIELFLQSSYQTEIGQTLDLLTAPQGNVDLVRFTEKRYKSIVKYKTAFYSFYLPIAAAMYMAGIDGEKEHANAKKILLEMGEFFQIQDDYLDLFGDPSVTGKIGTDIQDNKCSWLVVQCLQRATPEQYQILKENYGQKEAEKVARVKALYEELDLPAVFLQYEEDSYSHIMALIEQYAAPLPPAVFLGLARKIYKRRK

FPPS [5] = molecular target: T2, FPPS; details: read-out: Kd, binding affinity of FPP for FPPS; ref [21]; cited from earlier work
human MK [6] = molecular target: T1, human MK; set-up: method as in PMID 9325256, PMID 18302342; details: ref [19], [20]; read-out: Km of MK for the substrate, previously reported; cited from earlier work

T1 sequence (Q03426 whole entry): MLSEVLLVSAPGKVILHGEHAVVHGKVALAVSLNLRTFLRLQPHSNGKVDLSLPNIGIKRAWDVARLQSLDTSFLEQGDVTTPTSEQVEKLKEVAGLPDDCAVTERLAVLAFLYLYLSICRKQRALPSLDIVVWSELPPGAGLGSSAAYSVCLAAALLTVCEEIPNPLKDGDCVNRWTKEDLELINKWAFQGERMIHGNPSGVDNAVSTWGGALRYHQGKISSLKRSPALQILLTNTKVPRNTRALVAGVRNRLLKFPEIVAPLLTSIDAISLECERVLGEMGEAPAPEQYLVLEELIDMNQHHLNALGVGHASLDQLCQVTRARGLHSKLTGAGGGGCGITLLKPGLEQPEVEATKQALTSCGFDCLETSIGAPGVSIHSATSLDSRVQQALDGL

Compound: Nc1ncnc2c1ncn2[C@@H]1O[C@H](COP(=O)(O)OP(=O)(O)OP(=O)(O)O)[C@@H](O)[C@H]1O [ATP]
Km (human MK [1]): 61 µM

pIC50 (human MK [2]): 8.09
pKi (human MK [3]): 8.51
Ki' (ATP-bound enzyme), mixed inhibition model with respect to ATP (human MK [3]): 14 nM
Ki', uncompetitive inhibition model with respect to MVA (human MK [3]): 10 nM
inhibition at 10 µM (FPPS [4]): < 50%
Compound: Cn1cc(CCP(=O)(O)O)c2cc(-c3ccc(C(F)(F)F)cc3)ccc21 [Compound 16, 2‐(1‐Methyl‐5‐(4‐(trifluoromethyl)phenyl)‐1H‐indol‐3‐yl)ethylphosphonic acid]

pIC50 (human MK [2]): 5.80
Compound: Cc1ccc(-c2cc3c(NC(Cc4ccccc4)P(=O)(O)O)ncnc3s2)cc1OC1CC1 (stereo not drawn) [Compound 10, (1‐((6‐(3‐Cyclopropoxy‐4‐methylphenyl)thieno[2,3‐d]pyrimidin‐4‐yl)amino)‐2‐phenylethyl)phosphonic acid]

pIC50 (human MK [2]): 5.64
Compound: COc1cc(C)c(F)cc1-c1cc2c(NC(c3ccccc3)P(=O)(O)O)ncnc2s1 (stereo not drawn) [Compound 15]

inhibition at 1 µM (human MK [2]; read-out: inhibition of the MK reaction at 1 μM): 96%
Compound: CC(C)=CCC/C(C)=C/CC/C(C)=C/COP(=O)(O)OP(=O)(O)O [FPP, farnesyl pyrophosphate, reference compound]

pIC50 (human MK [2]): 7.38
pKi (human MK [3]): 7.66
Ki'/Ki ratio (human MK [3]; ATP as varied substrate, mixed inhibition model): ~ 17
Ki' (ATP-bound enzyme), mixed inhibition model with respect to ATP (human MK [3]): 380 nM
Ki', uncompetitive inhibition model with respect to MVA (human MK [3]): 140 nM
inhibition at 10 µM (FPPS [4]): < 50%
Compound: O=P(O)(O)C(Nc1ncnc2sc(-c3ccc(C(F)(F)F)cc3)cc12)c1ccccc1 (stereo not drawn) [Compound 11, (phenyl((6‐(4‐(trifluoromethyl)phenyl)thieno[2,3‐d]pyrimidin‐4‐yl)amino)methyl)phosphonic acid]

pIC50 (human MK [2]): 5.48
Compound: COc1cccc(OC)c1-c1cc2c(NC(c3ccccc3)P(=O)(O)O)ncnc2s1 (stereo not drawn) [Compound 13, (((6‐(2,6‐dimethoxyphenyl)thieno[2,3‐d]pyrimidin‐4‐yl)amino)(phenyl)methyl)phosphonic acid]

pIC50 (human MK [2]): 7.34
Compound: O=P(O)(O)C(Nc1ncnc2sc(-c3ccc(F)cc3)cc12)c1ccccc1 (stereo not drawn) [Compound 12, (((6‐(4‐fluorophenyl)thieno[2,3‐d]pyrimidin‐4‐yl)amino)(phenyl)methyl)phosphonic acid]

MK inhibition, result in words (human MK [2]): Inactive at 10 μM
Compound: O=P(O)(O)CNc1ncnc2sccc12 [Compound 1]

pIC50 (human MK [2]): 5.72
Compound: COc1cc(C)c(Cl)cc1-c1cc2c(NC(c3ccccc3)P(=O)(O)O)ncnc2s1 (stereo not drawn) [Compound 2]

pIC50 (human MK [2]): 7.92
Compound: CC(C)=CCC/C(C)=C/CC/C(C)=C/CO[P@@](=O)(O)OP(=O)(O)O (stereo in doubt) [FPP, farnesyl pyrophosphate, reference compound]
pKd (FPPS [5]): 5.22 to 5.30

pIC50 (human MK [2]): 6.92
Compound: O=P(O)(O)C(Nc1ncnc2sc(-c3cccc(C(F)(F)F)c3)cc12)c1ccccc1 (stereo not drawn) [Compound 14, (phenyl((6‐(3‐(trifluoromethyl)phenyl)thieno[2,3‐d]pyrimidin‐4‐yl)amino)methyl)phosphonic acid]

Compound: Cc1ccc(-c2cc3c(NC(Cc4cccc(F)c4)P(=O)(O)O)ncnc3s2)cc1OCC(C)C (stereo not drawn) [Compound 9, (2‐(3‐Fluorophenyl)‐1‐((6‐(3‐isobutoxy‐4‐methylphenyl)thieno[2,3‐d]pyrimidin‐4‐yl)amino)ethyl)phosphonic acid]
pIC50 (human MK [2]): 6.00

pIC50 (human MK [2]): 5.60
Compound: Cc1ccc(-c2cc3c(NC(Cc4ccccc4)P(=O)(O)O)ncnc3s2)cc1Cl (stereo not drawn) [Compound 6]

MK inhibition, result in words (human MK [2]): Inactive at 10 μM
Compound: O=P(O)(O)C(Nc1ncnc2sc(-c3cccc(C(F)(F)F)c3)cc12)P(=O)(O)O [Compound 17]

Compound: C[C@@](O)(CCO)CC(=O)O [MVA, mevalonic acid]
Km (human MK [1]): 37 µM
Km (human MK [6]): 24 µM and 40.8 µM
